From patent US9446039B2, “Aminoheteroaryl compounds as MTH1 inhibitors” (CEMM—FORSCHUNGSZENTRUM FÜR MOLEKULARE MEDIZIN GMBH, priority 2012, dated 2016)

What was measured:
Assay type in all cases: binding
[1] = target: SW480 colon carcinoma cells lysate proteins (Homo sapiens, UniProt Q14204); settings: PreyGene DYNC1H1
[2] = target: T1, SW480 colon carcinoma cells lysate proteins (Homo sapiens, UniProt P40926); settings: PreyGene MDH2
T1 sequence (P40926 25-338): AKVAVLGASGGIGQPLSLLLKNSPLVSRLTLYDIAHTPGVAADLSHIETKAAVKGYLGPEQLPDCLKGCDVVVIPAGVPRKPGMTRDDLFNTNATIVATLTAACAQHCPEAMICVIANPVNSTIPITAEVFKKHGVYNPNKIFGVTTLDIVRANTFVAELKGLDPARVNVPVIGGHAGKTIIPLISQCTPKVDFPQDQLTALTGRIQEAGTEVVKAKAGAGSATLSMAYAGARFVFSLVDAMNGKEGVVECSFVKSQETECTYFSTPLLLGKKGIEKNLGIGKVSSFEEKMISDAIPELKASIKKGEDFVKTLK

[3] = target: SW480 colon carcinoma cells lysate proteins (Homo sapiens, UniProt P27708); settings: PreyGene CAD
[4] = target: SW480 colon carcinoma cells lysate proteins (Homo sapiens, UniProt P63244); settings: PreyGene GNB2L1; SW480 cells
[5] = target: SW480 colon carcinoma cells lysate proteins (Homo sapiens, UniProt Q13200); settings: PreyGene PSMD2
[6] = target: SW480 colon carcinoma cells lysate proteins (Homo sapiens, UniProt P28070); settings: PreyGene PSMB4
Sequence of SW480 colon carcinoma cells lysate proteins (Homo sapiens, UniProt P28070) (P28070 46-264): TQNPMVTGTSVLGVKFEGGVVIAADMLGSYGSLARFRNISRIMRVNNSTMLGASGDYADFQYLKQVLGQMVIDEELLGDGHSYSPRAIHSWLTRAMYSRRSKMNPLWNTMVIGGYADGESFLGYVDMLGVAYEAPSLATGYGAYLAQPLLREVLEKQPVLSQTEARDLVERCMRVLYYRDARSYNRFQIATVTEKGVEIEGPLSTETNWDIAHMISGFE

[7] = target: T2, SW480 colon carcinoma cells lysate proteins (Homo sapiens, UniProt Q9BVC6); settings: PreyGene TMEM109; SW480 cells
T2 sequence (Q9BVC6 34-243): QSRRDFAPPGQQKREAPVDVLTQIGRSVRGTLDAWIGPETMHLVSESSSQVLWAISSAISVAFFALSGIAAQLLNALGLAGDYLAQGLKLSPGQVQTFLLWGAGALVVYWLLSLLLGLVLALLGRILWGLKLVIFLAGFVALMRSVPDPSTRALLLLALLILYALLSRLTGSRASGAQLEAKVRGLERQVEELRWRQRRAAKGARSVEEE

[8] = target: SW480 colon carcinoma cells lysate proteins (Homo sapiens, UniProt P26447); settings: PreyGene S100A4
Sequence of SW480 colon carcinoma cells lysate proteins (Homo sapiens, UniProt P26447) (P26447 whole entry): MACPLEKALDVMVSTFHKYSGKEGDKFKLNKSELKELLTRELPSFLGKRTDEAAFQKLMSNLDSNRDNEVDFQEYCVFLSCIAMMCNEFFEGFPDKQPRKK

[9] = target: SW480 colon carcinoma cells lysate proteins (Homo sapiens, UniProt P17980); settings: PreyGene PSMC3
[10] = target: T3, SW480 colon carcinoma cells lysate proteins (Homo sapiens, UniProt P55145); settings: PreyGene MANF
T3 sequence (P55145 25-182): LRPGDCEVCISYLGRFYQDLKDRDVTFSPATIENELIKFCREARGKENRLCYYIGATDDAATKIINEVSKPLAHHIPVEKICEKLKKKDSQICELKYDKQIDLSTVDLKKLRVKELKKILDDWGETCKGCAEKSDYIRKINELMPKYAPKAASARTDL

[11] = target: SW480 colon carcinoma cells lysate proteins (Homo sapiens, UniProt Q14240); settings: PreyGene EIF4A2; SW480 cells
[12] = target: T4, SW480 colon carcinoma cells lysate proteins (Homo sapiens, UniProt P04075); settings: PreyGene ALDOA
T4 sequence (P04075 1-364): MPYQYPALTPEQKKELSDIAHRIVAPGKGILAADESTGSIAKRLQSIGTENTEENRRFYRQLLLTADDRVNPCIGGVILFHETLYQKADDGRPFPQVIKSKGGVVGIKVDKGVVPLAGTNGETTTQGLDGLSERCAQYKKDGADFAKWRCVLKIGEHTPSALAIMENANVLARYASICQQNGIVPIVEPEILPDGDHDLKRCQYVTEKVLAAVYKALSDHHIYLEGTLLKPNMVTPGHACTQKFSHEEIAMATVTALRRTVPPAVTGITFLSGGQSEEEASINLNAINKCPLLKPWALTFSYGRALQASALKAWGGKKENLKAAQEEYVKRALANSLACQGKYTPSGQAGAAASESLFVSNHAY

Sequence of SW480 colon carcinoma cells lysate proteins (Homo sapiens, UniProt Q14204) (Q14204 whole entry): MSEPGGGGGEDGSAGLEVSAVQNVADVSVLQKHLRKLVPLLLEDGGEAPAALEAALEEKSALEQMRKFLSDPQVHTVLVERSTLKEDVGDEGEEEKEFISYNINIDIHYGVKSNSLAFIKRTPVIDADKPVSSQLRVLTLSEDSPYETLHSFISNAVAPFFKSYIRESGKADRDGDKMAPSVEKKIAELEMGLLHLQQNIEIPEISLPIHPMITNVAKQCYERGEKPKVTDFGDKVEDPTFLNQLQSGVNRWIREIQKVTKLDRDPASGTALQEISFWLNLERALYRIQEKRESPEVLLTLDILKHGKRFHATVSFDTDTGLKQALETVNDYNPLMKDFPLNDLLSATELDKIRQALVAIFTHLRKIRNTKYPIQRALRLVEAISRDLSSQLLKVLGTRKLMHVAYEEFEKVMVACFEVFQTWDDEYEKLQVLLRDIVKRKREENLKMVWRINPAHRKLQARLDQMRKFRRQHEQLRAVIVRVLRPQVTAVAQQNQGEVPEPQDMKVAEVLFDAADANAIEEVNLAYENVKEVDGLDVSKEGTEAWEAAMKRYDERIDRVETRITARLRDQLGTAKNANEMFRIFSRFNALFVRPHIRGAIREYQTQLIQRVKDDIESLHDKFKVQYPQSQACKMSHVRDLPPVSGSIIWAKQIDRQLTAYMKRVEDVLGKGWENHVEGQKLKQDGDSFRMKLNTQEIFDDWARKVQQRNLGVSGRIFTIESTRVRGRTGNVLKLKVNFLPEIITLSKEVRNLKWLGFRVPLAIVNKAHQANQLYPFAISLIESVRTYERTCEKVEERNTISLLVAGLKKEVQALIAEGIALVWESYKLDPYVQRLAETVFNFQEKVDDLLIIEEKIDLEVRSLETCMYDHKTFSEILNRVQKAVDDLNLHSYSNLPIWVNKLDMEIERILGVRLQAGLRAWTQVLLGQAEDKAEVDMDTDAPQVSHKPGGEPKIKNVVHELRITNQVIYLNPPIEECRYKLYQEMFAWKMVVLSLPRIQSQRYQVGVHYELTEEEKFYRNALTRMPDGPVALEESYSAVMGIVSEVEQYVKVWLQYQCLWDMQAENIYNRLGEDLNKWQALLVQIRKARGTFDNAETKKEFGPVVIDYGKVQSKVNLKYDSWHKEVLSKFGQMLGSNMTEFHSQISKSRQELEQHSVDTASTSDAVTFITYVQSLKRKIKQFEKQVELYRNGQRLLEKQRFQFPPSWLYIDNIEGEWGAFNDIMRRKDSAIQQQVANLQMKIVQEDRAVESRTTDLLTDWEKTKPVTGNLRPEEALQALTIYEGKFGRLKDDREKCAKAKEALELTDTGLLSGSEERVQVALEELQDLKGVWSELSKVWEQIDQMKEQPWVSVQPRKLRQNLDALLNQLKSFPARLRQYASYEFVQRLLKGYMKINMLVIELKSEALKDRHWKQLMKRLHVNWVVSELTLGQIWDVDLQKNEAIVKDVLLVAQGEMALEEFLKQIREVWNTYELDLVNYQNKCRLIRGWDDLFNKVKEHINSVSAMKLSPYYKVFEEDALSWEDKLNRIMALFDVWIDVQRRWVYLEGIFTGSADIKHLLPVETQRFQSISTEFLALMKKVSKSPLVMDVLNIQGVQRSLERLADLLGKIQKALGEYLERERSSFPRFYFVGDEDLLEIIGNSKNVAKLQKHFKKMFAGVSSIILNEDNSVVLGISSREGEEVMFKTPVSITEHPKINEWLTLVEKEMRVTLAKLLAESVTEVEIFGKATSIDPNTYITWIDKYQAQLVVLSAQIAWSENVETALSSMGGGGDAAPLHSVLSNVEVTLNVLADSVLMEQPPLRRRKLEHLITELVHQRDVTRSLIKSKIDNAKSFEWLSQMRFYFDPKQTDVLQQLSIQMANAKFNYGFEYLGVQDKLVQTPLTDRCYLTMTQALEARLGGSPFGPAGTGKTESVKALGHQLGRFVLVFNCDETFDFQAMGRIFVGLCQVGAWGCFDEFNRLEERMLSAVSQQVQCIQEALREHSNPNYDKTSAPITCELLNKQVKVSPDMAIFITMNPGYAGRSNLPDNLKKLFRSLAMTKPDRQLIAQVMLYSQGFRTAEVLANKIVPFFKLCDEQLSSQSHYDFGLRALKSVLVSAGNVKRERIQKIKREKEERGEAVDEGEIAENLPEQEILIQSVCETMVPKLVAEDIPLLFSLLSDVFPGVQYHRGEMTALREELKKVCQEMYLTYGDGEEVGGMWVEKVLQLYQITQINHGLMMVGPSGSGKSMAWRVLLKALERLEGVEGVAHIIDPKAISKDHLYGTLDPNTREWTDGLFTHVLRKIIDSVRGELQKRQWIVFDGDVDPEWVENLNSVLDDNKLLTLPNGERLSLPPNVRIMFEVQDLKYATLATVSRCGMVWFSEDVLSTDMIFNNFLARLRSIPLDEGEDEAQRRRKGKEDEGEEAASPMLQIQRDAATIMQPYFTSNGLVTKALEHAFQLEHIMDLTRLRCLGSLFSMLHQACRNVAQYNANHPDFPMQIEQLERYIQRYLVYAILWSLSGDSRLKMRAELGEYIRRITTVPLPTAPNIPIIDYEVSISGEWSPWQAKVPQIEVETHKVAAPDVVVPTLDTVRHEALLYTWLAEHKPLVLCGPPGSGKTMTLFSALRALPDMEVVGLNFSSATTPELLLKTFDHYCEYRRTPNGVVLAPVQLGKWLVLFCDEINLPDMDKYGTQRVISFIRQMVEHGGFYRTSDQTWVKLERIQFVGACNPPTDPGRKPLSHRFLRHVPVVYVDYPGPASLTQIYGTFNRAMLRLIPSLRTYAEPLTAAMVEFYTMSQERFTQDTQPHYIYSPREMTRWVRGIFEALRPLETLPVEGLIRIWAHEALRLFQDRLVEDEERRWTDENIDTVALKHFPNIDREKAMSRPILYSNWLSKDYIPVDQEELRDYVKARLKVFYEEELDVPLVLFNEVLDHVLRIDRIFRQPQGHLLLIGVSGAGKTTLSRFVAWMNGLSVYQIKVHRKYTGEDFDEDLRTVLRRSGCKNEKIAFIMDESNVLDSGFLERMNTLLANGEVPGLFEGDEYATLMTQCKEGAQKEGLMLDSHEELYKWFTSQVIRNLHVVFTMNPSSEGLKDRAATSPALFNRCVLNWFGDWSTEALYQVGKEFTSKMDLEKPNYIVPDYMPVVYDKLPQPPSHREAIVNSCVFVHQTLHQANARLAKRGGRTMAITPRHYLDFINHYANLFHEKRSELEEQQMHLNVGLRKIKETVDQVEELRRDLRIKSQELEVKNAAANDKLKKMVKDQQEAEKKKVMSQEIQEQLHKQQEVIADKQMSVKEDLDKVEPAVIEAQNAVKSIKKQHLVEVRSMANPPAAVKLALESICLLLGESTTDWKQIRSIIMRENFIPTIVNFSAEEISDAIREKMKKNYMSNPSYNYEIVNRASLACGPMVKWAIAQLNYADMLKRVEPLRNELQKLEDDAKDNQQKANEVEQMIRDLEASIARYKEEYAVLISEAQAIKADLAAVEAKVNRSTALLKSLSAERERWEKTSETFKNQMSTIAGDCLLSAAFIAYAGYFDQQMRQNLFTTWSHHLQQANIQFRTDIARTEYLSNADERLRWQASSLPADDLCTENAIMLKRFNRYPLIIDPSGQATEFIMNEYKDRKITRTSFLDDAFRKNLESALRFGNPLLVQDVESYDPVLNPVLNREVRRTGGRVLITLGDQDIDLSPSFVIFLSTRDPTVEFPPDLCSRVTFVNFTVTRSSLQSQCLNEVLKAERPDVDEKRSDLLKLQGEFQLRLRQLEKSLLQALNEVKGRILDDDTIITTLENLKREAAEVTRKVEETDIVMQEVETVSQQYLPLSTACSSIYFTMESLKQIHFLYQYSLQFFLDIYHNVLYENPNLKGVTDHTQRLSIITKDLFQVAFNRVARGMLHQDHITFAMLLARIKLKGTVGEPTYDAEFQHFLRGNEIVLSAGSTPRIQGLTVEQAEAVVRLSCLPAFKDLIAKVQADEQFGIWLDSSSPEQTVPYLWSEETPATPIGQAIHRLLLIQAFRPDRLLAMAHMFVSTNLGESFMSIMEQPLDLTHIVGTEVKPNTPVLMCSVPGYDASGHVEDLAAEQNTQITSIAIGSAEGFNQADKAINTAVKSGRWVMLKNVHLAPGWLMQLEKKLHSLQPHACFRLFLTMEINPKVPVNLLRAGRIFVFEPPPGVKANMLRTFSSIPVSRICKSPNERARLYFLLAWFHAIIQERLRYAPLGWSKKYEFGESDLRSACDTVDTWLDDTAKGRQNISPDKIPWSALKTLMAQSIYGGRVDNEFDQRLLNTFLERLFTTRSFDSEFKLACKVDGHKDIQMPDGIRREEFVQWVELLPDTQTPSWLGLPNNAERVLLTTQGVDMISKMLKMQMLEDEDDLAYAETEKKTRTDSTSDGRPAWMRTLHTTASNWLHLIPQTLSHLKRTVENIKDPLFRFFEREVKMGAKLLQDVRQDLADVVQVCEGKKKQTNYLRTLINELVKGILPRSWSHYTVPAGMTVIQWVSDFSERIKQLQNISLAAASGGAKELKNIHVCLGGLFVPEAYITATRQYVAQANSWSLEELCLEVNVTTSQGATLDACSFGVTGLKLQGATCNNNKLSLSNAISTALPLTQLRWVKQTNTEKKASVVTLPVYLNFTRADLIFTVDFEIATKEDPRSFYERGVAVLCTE

## C[C@H](Oc1cc(-c2cnn(C3CCNCC3)c2)cnc1N)c1c(Cl)ccc(F)c1Cl [(5)-crizotinib]
[1]
  AvgP: 0.2458
  SC.Exp. 1-1: 13
  SC.Exp. 1-2: 13
  SC.Exp. 2-1: 2
  SC.Exp. 2-2: 2
  Sum (SC.Exp.): 30
[2]
  AvgP: 0.4441
  SC.Exp. 1-1: 5
  SC.Exp. 1-2: 5
  SC.Exp. 2-1: 0
  SC.Exp. 2-2: 0
  Sum (SC.Exp.): 10
[3]
  AvgP: 0.3483
  SC.Exp. 1-1: 2
  SC.Exp. 1-2: 3
  SC.Exp. 2-1: 0
  SC.Exp. 2-2: 0
  Sum (SC.Exp.): 5
[4]
  AvgP: 0
  SC.Exp. 1-1: 12
  SC.Exp. 1-2: 13
  SC.Exp. 2-1: 9
  SC.Exp. 2-2: 11
  SC.Exp. Sum: 45
[5]
  AvgP: 0.4359
  SC.Exp. 1-1: 6
  SC.Exp. 1-2: 5
  SC.Exp. 2-1: 0
  SC.Exp. 2-2: 0
  Sum (SC.Exp.): 11
[6]
  AvgP: 0.1875
  SC.Exp. 1-1: 2
  SC.Exp. 1-2: 0
  SC.Exp. 2-1: 0
  SC.Exp. 2-2: 0
  Sum (SC.Exp.): 2
[7]
  AvgP: 0
  SC.Exp. 1-1: 1
  SC.Exp. 1-2: 1
  SC.Exp. 2-1: 0
  SC.Exp. 2-2: 1
  SC.Exp. Sum: 3
[8]
  AvgP: 0.3894
  SC.Exp. 1-1: 3
  SC.Exp. 1-2: 2
  SC.Exp. 2-1: 0
  SC.Exp. 2-2: 0
  Sum (SC.Exp.): 5
[9]
  AvgP: 0.4297
  SC.Exp. 1-1: 3
  SC.Exp. 1-2: 3
  SC.Exp. 2-1: 0
  SC.Exp. 2-2: 0
  Sum (SC.Exp.): 6
[10]
  AvgP: 0.3221
  SC.Exp. 1-1: 2
  SC.Exp. 1-2: 1
  SC.Exp. 2-1: 0
  SC.Exp. 2-2: 0
  Sum (SC.Exp.): 3
[11]
  AvgP: 0
  SC.Exp. 1-1: 1
  SC.Exp. 1-2: 1
  SC.Exp. 2-1: 0
  SC.Exp. 2-2: 1
  SC.Exp. Sum: 3
[12]
  AvgP: 0.2283
  SC.Exp. 1-1: 12
  SC.Exp. 1-2: 12
  SC.Exp. 2-1: 2
  SC.Exp. 2-2: 0
  Sum (SC.Exp.): 26
